From patent publication US7400979B2, “Method of identifying inhibitors of Lck” (Abbott Laboratories, priority 2001, dated 2008) come the findings set out here.

Experiment [1] has as its target Lck protein tyrosine kinase (Homo sapiens, UniProt P06239). Briefly: Lck inhibition assay: ELISA for protein tyrosine kinases. The settings on record: poly(Glu4Tyr) substrate, 5 μM ATP, 5% DMSO, result in words. Type of experiment: biochemical. The source says: The disclosed protocol was adapted for determining activity with respect to a specific protein tyrosine kinase, e.g. Lck. […] Adaptation of these protocols for determining the activity of a compound against other protein tyrosine kinases, for example Hck, are well within the abilities of those skilled in the art. […] The following procedure was used to assay the inhibitory effect of compounds of this invention on Lck protein tyrosine kinase activity:
Store on ice. […] Store on ice.

For a further experiment, the target named is Hck (Homo sapiens, UniProt P08631). Briefly: ELISA for protein tyrosine kinases adapted to Hck (inhibitor selectivity). Type of experiment: biochemical. The following applies: result in words; b177 defines selective as IC50 for Lck at least 10-fold lower than for the related protein. The source says: The disclosed protocol was adapted for determining activity with respect to a specific protein tyrosine kinase, e.g. Lck. […] Adaptation of these protocols for determining the activity of a compound against other protein tyrosine kinases, for example Hck, are well within the abilities of those skilled in the art. […] The following procedure was used to assay the inhibitory effect of compounds of this invention on Lck protein tyrosine kinase activity: […]
Hck, sequence (P08631 whole entry): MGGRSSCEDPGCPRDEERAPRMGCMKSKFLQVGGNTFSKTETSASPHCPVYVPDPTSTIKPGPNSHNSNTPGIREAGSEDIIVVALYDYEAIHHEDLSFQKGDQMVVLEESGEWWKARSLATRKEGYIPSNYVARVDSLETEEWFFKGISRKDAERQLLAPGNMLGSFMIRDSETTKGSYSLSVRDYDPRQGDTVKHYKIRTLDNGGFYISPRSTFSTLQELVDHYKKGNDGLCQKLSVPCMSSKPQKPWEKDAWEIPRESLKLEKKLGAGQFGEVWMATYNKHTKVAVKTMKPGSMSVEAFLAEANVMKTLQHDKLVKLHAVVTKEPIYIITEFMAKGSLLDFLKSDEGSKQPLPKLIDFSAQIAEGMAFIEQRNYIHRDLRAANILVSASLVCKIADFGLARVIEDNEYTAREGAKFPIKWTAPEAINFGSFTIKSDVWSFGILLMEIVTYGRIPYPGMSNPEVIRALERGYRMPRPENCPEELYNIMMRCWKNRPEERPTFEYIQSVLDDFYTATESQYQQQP

Lck protein tyrosine kinase, sequence (P06239 whole entry): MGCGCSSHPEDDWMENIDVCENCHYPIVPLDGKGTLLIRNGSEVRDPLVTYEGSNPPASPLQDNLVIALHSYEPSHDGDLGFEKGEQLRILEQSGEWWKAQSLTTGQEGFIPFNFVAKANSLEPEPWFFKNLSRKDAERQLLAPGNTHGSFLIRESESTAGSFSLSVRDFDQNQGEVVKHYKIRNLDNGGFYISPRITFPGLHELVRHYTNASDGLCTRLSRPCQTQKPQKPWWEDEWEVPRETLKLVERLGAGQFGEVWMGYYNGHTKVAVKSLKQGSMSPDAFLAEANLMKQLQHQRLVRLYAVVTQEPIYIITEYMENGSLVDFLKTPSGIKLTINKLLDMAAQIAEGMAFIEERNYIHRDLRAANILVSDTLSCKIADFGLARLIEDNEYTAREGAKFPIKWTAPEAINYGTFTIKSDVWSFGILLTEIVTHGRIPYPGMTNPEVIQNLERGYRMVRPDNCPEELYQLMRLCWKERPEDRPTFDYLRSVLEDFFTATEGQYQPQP

Consider `CN1CCN([C@H]2CC[C@H](n3nc(-c4ccc(Nc5n[nH]c6ccccc56)cc4)c4c(N)ncnc43)CC2)CC1` [inhibitor 15, trans-3-[4-(1H-3-indazolylamino)phenyl]-1-[4-(4-methylpiperazino)cyclohexyl]-1H-pyrazolo[3,4-d]pyrimidin-4-amine], for which the “Lck inhibition (in vitro potency)” value in experiment [1] is recorded as “potent inhibitor of human Lck”.

For `CNCCCN(C)C/C=C/c1[nH]c(=O)c2c(ccc3nc(Nc4c(Cl)cccc4Cl)n(C)c32)c1C` [inhibitor 13, 2-(2,6-dichloroanilino)-1,6-dimethyl-7-((E)-3-{methyl[3-(methylamino)propyl]amino}-1-propenyl)-8,9-dihydro-1H-imidazo[4,5-h]isoquinolin-9-one], in experiment [1], the “Lck inhibition (in vitro potency)” value is on record as “potent inhibitor of Lck”. Besides, on Hck, the “selectivity for Lck over Hck” value is given as “inhibit Lck selectively over Hck”.
